Experimental data: patent publication US20090036525A1, “Non-Natural Amino Acid Derivatives” (POXIMAGEN LTD., priority 2006, published 2009)
Where a SMILES comes first, the peptide text is derived from it. [ ]: non-standard residue; d: D form. Dopa = N[C@@H](Cc1ccc(O)c(O)c1)C(=O)O; Cha = N[C@@H](CC1CCCCC1)C(=O)O

Test system: 6-OHDA-lesioned rats
Test: Induction of rotational activity in 6-OHDA-lesioned rats
Format: in vivo, rat
Conditions: 63.4 μmole/kg, after benserazide 10 mg/kg, rotations over 4 hours

| SMILES | AUC activity (as % of AUC activity L-DOPA) (p.o.) | Peak activity (as % of maximal activity L-DOPA) (p.o.) | duration of activity (as % of duration of activity L-DOPA) (p.o.) | AUC activity (as % of AUC activity L-DOPA) (i.p.) | Peak activity (as % of maximal activity L-DOPA) (i.p.) | duration of activity (as % of duration of activity L-DOPA) (i.p.) |
| --- | --- | --- | --- | --- | --- | --- |
| COC(=O)[C@H](Cc1ccc(O)c(O)c1)NC(=O)[C@@H](N)CC1CCCCC1.Cl [Example 1, (S)-2-Cyclohexyl-1-[(S)-2-(3,4-dihydroxyphenyl)-1-methoxycarbonylethyl-carbamoyl]-ethylammonium chloride] (H-[Cha]-[Dopa]-OMe) | 40 % of L-DOPA | 53 % of L-DOPA | 45 % of L-DOPA | – | – | – |
| COC(=O)[C@H](Cc1ccc(OC(C)=O)c(OC(C)=O)c1)NC(=O)[C@@H](N)CC1CCCCC1.Cl [Example 2, (S)-2-Cyclohexyl-1-[(S)-2-(3,4-diacetoxyphenyl)-1-methoxycarbonyl-ethylcarbamoyl]-ethylammonium chloride] | – | – | – | 32 % of L-DOPA | 31 % of L-DOPA | 27 % of L-DOPA |
| COC(=O)[C@H](Cc1ccc(O)c(O)c1)NC(=O)[C@@H](N)[C@@H](C)c1ccccc1.Cl [Example 12, (1S,2S)-1-[(S)-2-(3,4-Dihydroxyphenyl)-1-methoxycarbonylethylcarbamoyl]-2-phenylpropylammonium chloride] | 50 % of L-DOPA | 62 % of L-DOPA | 46 % of L-DOPA | – | – | – |
| COC(=O)[C@H](Cc1ccc(O)c(O)c1)NC(=O)[C@@H](N)[C@H](C)c1ccccc1.Cl [Example 13, (1S,2R)-1-[(S)-2-(3,4-Dihydroxyphenyl)-1-methoxycarbonyl-ethylcarbamoyl]-2-phenylpropylammonium; chloride] | 106 % of L-DOPA | 141 % of L-DOPA | 76 % of L-DOPA | – | – | – |
